Where “and” joins values, the source holds several entries; their conditions need not be identical. Equal entries are not always repeated.
Experiments:
[1] = target: mTORC1 (mTOR/GbL/Raptor) (Homo sapiens, UniProt P42345); assay: mTOR/GbL/Raptor (mTORC1) ELISA Assay; format: biochemical; details: 0.2 nM mTORC1, 10 μM ATP, 50 nM NHis-tagged 4E-BP1; phosphorylation of 4E-BP1; read-out: IC50
Protocol: mTOR/GbL/Raptor (mTORC1) ELISA Assay
The measurement of mTORC1 enzyme activity was performed in an ELISA assay format following the phosphorylation of 4E-BP1 protein. All experiments were performed in the 384-well format. Generally, 0.5 μL DMSO containing varying concentrations of the test compound was mixed with 15 μL enzyme solution. Kinase reactions were initiated with the addition of 15 μL of substrates-containing solution. The assay conditions were as follows; 0.2 nM mTORC1, 10 μM ATP and 50 nM NHis-tagged 4E-BP1 in 20 mM Hepes, pH 7.2, 1 mM DTT, 50 mM NaCl, 10 mM MnCl2, 0.02 mg/mL BSA, 0.01% CHAPS, 50 mM β-glycerophosphate. Following an incubation of 120 minutes at ambient temperature, 20 μL of the reaction volume was transferred to a Ni-Chelate-coated 384-well plate. The binding step of the 4E-BP1 protein proceeded for 60 minutes, followed by washing 4 times each with 50 μL of Tris-buffered saline solution (TBS). Anti-phospho-4E-BP1 rabbit-IgG (20 μL, 1:5000) in 5% BSA-TBST (0.2% Tween-20 in TBS) was added and further incubated for 60 minutes. Incubation with a secondary HRP-tagged anti-IgG was similarly performed after washing off the primary antibody (4 washes of 50 μL). Following the final wash step with TBST, 20 μL of SuperSignal ELISA Femto (Pierce Biotechnology) was added and the luminescence measured using an EnVision plate reader.

[2] = target: PI3Kα (Homo sapiens, UniProt P42336); assay: PI3K Biochemical Assays (ATP consumption, luciferase-luciferin chemiluminescence); details: PI3Kα 1.5 nM, ATP 1 μM, PIP2 10 μM; percent of ATP consumed
Chain of PI3Kα (P42336 whole entry): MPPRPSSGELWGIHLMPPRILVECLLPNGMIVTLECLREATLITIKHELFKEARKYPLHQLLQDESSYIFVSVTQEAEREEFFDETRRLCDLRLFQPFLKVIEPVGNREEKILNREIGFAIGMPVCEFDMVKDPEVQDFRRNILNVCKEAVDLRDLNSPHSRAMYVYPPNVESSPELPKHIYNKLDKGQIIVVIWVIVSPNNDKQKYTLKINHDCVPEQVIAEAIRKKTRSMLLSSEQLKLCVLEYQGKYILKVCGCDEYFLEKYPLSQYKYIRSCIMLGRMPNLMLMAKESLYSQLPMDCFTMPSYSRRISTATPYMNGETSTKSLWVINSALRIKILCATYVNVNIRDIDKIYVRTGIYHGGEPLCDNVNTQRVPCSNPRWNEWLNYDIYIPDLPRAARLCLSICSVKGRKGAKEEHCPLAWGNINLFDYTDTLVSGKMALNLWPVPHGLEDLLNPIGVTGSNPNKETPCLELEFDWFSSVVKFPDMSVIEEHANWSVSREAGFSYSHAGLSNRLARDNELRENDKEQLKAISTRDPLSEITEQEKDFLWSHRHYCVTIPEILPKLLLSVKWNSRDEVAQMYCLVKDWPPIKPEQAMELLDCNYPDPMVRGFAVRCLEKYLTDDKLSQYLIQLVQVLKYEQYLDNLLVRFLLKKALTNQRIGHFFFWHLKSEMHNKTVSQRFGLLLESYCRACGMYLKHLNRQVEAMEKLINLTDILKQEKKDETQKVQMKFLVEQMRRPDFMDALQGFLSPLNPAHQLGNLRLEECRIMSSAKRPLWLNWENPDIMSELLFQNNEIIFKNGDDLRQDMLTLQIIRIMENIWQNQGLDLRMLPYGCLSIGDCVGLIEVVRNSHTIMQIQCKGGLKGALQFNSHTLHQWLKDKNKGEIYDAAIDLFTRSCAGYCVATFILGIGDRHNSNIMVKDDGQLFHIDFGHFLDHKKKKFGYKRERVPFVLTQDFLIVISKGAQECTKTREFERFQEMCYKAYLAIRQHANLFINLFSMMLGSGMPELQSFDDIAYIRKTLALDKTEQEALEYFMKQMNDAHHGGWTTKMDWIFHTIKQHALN
Chain of PI3Kα (P27986 whole entry partner): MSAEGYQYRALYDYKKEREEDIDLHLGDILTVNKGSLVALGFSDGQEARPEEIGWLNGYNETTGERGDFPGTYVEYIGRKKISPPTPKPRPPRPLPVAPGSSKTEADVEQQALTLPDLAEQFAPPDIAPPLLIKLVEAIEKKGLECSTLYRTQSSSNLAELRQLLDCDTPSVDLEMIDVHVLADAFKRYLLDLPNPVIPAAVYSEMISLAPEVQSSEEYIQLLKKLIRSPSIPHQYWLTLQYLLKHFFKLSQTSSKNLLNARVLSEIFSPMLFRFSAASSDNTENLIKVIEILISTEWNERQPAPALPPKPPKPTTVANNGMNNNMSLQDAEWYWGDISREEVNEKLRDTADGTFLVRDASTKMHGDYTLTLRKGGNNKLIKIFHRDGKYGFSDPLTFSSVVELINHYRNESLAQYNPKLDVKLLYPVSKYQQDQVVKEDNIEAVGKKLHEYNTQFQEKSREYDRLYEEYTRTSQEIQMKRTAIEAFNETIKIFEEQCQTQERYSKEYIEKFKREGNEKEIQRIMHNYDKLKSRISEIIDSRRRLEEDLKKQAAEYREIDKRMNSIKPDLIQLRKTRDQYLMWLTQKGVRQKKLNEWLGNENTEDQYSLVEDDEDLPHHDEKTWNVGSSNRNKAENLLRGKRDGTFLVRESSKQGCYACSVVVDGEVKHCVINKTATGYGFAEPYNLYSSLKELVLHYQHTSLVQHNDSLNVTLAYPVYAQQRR
Protocol: PI3Kα activity is measured as the percent of ATP consumed following the kinase reaction using luciferase-luciferin-coupled chemiluminescence. Reactions were conducted in 384-well white, medium binding microtiter plates (Greiner). Kinase reactions were initiated by combining test compounds, ATP, substrate (PIP2), and kinase in a 20 μL volume in a buffer solution. The standard PI3Kalpha assay buffer is composed 50 mM Tris, pH 7.5, 1 mM EGTA, 10 mM MgCl2, 1 mM DTT and 0.03% CHAPS. The standard assay concentrations for enzyme, ATP, and substrate are 1.5 nM, 1 μM, and 10 μM, respectively. The reaction mixture was incubated at ambient temperature for approximately 2 h. Following the kinase reaction, a 10 μL aliquot of luciferase-luciferin mix (Promega Kinase-Glo) was added and the chemiluminescence signal measured using a Victor2 plate reader (Perkin Elmer). Total ATP consumption was limited to 40-60% and IC50 values of control compounds correlate well with literature references. Substituting PI3Kα with PI3KIβ, […], or […], the inhibitory activity of the compounds for the other isoforms of I3K were measured.

Compound	IC50 [1]	IC50 [2]
Cc1nc2ccc(-c3ccc4c(c3)CN(C(=O)N3CC5CCCC5C3)CCO4)cc2[nH]1 (centres unmarked) [Compound 84, 4-(hexahydrocyclopenta[c]pyrrol-2(1H)-ylcarbonyl)-7-(2-methyl-1H-benzimidazol-6-yl)-2,3,4,5-tetrahydro-1,4-benzoxazepine]	0.05 to 0.25 µM	0.2 to 0.5 µM
Cc1nc2ccc(-c3ccc4c(c3)CN(C(=O)N(Cc3ccccc3)C(C)C)CCO4)cc2[nH]1 [Compound 103, 7-(2-methyl-1H-benzimidazol-6-yl)-N-(1-methylethyl)-N-(phenylmethyl)-2,3-dihydro-1,4-benzoxazepine-4(5H)-carboxamide]	0.05 to 0.25 µM	1 to 3 µM
COC(=O)Nc1nc2ccc(-c3ccc4c(c3)CN(C(=O)N3CCC(O)(C(F)(F)F)CC3)CCO4)cc2[nH]1 [Compound 22, methyl [6-(4-{[4-hydroxy-4-(trifluoromethyl)piperidin-1-yl]carbonyl}-2,3,4,5-tetrahydro-1,4-benzoxazepin-7-yl)-1H-benzimidazol-2-yl]carbamate]	≤ 0.05 µM	0.2 to 0.5 µM
Cc1nc2ccc(-c3ccc4c(c3)CN(C(=O)N3CCC(Cc5ccccc5)C3)CCO4)cc2[nH]1 (centres unmarked) [Compound 100, 7-(2-methyl-1H-benzimidazol-6-yl)-4-{[3-(phenylmethyl)pyrrolidin-1-yl]carbonyl}-2,3,4,5-tetrahydro-1,4-benzoxazepine]	0.25 to 0.7 µM	0.5 to 1 µM
CCC1CCC(C)N(C(=O)N2CCOc3ccc(-c4ccc5nc(C)[nH]c5c4)cc3C2)C1 (centres unmarked) [Compound 76, 4-[(5-ethyl-2-methylpiperidin-1-yl)carbonyl]-7-(2-methyl-1H-benzimidazol-6-yl)-2,3,4,5-tetrahydro-1,4-benzoxazepine]	0.05 to 0.25 µM	0.2 to 0.5 µM
Cc1nc2ccc(-c3ccc4c(c3)CN(C(=O)N3CCCC[C@@H]3c3ccccc3)CCO4)cc2[nH]1 [Compound 66, 7-(2-methyl-1H-benzimidazol-6-yl)-4-{[(2R)-2-phenylpiperidin-l-yl]carbonyl}-2,3,4,5-tetrahydro-1,4-benzoxazepine]	≤ 0.05 µM	≤ 0.075 µM
COC(=O)Nc1nc2ccc(-c3ccc4c(c3)CN(C(=O)N3C5CCC3CC(=O)C5)CCO4)cc2[nH]1 [Compound 25, methyl (6-{4-[(3-oxo-8-azabicyclo[3.2.1]oct-8-yl)carbonyl]-2,3,4,5-tetrahydro-1,4-benzoxazepin-7-yl}-1H-benzimidazol-2-yl)carbamate]	0.05 to 0.25 µM	0.2 to 0.5 µM
Cc1nc2ccc(-c3ccc4c(c3)CN(C(=O)N3CCCC(c5ccccc5)C3)CCO4)cc2[nH]1 (centres unmarked) [Compound 97, 7-(2-methyl-1H-benzimidazol-6-yl)-4-[(3-phenylpiperidin-1-yl)carbonyl]-2,3,4,5-tetrahydro-1,4-benzoxazepine]	0.25 to 0.7 µM	0.5 to 1 µM
Cc1nc2ccc(-c3ccc4c(c3)CN(C(=O)N3CCCC(O)C3)CCO4)cc2[nH]1 (centres unmarked) [Compound 108, 1-{[7-(2-methyl-1H-benzimidazol-6-yl)-2,3-dihydro-1,4-benzoxazepin-4(5H)-yl]carbonyl}piperidin-3-ol]	0.25 to 0.7 µM	0.5 to 1 µM
Cc1nc2ccc(-c3ccc4c(c3)CN(C(=O)N3CCCc5ccccc53)CCO4)cc2[nH]1 [Compound 85, 4-(3,4-dihydroquinolin-1(2H)-ylcarbonyl)-7-(2-methyl-1H-benzimidazol-6-yl)-2,3,4,5-tetrahydro-1,4-benzoxazepine]	0.05 to 0.25 µM	1 to 3 µM
Cc1nc2ccc(-c3ccc4c(c3)CN(C(=O)N3CCC(C5CCNCC5)CC3)CCO4)cc2[nH]1 [Compound 71, 1-{[7-(2-methyl-1H-benzimidazol-6-yl)-2,3-dihydro-1,4-benzoxazepin-4(5H)-yl]carbonyl}-4,4-bipiperidine]		0.2 to 0.5 µM and 0.5 to 1 µM
Cc1nc2ccc(-c3ccc4c(c3)CN(C(=O)N3CCCC3)CCO4)cc2[nH]1 [Compound 87, 7-(2-methyl-1H-benzimidazol-6-yl)-4-(pyrrolidin-1-ylcarbonyl)-2,3,4,5-tetrahydro-1,4-benzoxazepine]		0.5 to 1 µM
Cc1nc2ccc(-c3ccc4c(c3)CN(C(=O)N3CC[C@@H](O)C3)CCO4)cc2[nH]1 [Compound 78, (3R)-1-{[7-(2-methyl-1H-benzimidazol-6-yl)-2,3-dihydro-1,4-benzoxazepin-4(5H)-yl]carbonyl}pyrrolidin-3-ol]		0.5 to 1 µM
CC1CCN(C(=O)N2CCOc3ccc(-c4cc(NCc5ccccc5)[nH]n4)cc3C2)CC1 [Compound 9, 3-{4-[(4-methylpiperidin-1-yl)carbonyl]-2,3,4,5-tetrahydro-1,4-benzoxazepin-7-yl}-N-(phenylmethyl)-1H-pyrazol-5-amine]		1 to 3 µM

Other lines, results leading:

IC50 [1]	IC50 [2]	Compound
0.05 to 0.25 µM	0.2 to 0.5 µM	Cc1nc2ccc(-c3ccc4c(c3)CN(C(=O)N3C5CCC3c3ccccc35)CCO4)cc2[nH]1 [Compound 143, 9-{[7-(2-methyl-1H-benzimidazol-6-yl)-2,3-dihydro-1,4-benzoxazepin-4(5H)-yl]carbonyl}-1,2,3,4-tetrahydro-1,4-epiminonaphthalene]
0.25 to 0.7 µM	0.5 to 1 µM	Cc1nc2ccc(-c3ccc4c(c3)CN(C(=O)N3CCN(c5ccccc5)CC3)CCO4)cc2[nH]1 [Compound 174, 7-(2-methyl-1H-benzimidazol-6-yl)-4-[(4-phenylpiperazin-1-yl)carbonyl]-2,3,4,5-tetrahydro-1,4-benzoxazepine]
0.05 to 0.25 µM	0.2 to 0.5 µM	CCN(Cc1ccccc1)C(=O)N1CCOc2ccc(-c3ccc4nc(C)[nH]c4c3)cc2C1 [Compound 177, N-ethyl-7-(2-methyl-1H-benzimidazol-6-yl)-N-(phenylmethyl)-2,3-dihydro-1,4-benzoxazepine-4(5H)-carboxamide]
0.25 to 0.7 µM	1 to 3 µM	Cc1nc2ccc(-c3ccc4c(c3)CN(C(=O)N3CCN(c5ccccc5)CC3c3ccccc3)CCO4)cc2[nH]1 (centres unmarked) [Compound 145, 4-[(2,4-diphenylpiperazin-1-yl)carbonyl]-7-(2-methyl-1H-benzimidazol-6-yl)-2,3,4,5-tetrahydro-1,4-benzoxazepine]
	1 to 3 µM	Cc1nc2ccc(-c3ccc4c(c3)CN(C(=O)N3CCC(O)(C(F)(F)F)CC3c3ccc(F)c(F)c3)CCO4)cc2[nH]1 (centres unmarked) [Compound 119, 2-(3,4-difluorophenyl)-1-{[7-(2-methyl-1H-benzimidazol-6-yl)-2,3-dihydro-1,4-benzoxazepin-4(5H)-yl]carbonyl}-4-(trifluoromethyl)piperidin-4-ol]
	0.5 to 1 µM	CC(=O)c1ccc(N2CCN(C(=O)N3CCOc4ccc(-c5ccc6nc(C)[nH]c6c5)cc4C3)CC2)cc1 [Compound 169, 1-[4-(4-{[7-(2-methyl-1H-benzimidazol-6-yl)-2,3-dihydro-1,4-benzoxazepin-4(5H)-yl]carbonyl}piperazin-1-yl)phenyl]ethanone]
	0.5 to 1 µM	Cc1nc2ccc(-c3ccc4c(c3)CN(C(=O)N3CCOCC3)CCO4)cc2[nH]1 [Compound 132, 7-(2-methyl-1H-benzimidazol-6-yl)-4-(morpholin-4-ylcarbonyl)-2,3,4,5-tetrahydro-1,4-benzoxazepine]
	0.2 to 0.5 µM	Cc1nc2ccc(-c3ccc4c(c3)CN(C(=O)N3[C@@H]5CC[C@H]3C[C@@H](CO)C5)CCO4)cc2[nH]1 [Compound 112, (8-{[7-(2-methyl-1H-benzimidazol-6-yl)-2,3-dihydro-1,4-benzoxazepin-4(5H)-yl]carbonyl}-8-azabicyclo[3.2.1]oct-3-(endo)-yl)methanol]
	1 to 3 µM	Cc1nc2ccc(-c3ccc4c(c3)CN(C(=O)N3CCN(C)CC3c3ccccc3)CCO4)cc2[nH]1 (centres unmarked) [Compound 144, 7-(2-methyl-1H-benzimidazol-6-yl)-4-[(4-methyl-2-phenylpiperazin-1-yl)carbonyl]-2,3,4,5-tetrahydro-1,4-benzoxazepine]
	1 to 3 µM	Cc1nc2ccc(-c3ccc4c(c3)CN(C(=O)N3CCCCC3c3cc(C(F)(F)F)cc(C(F)(F)F)c3)CCO4)cc2[nH]1 (centres unmarked) [Compound 115, 4-({2-[3,5-bis(trifluoromethyl)phenyl]piperidin-1-yl}carbonyl)-7-(2-methyl-1H-benzimidazol-6-yl)-2,3,4,5-tetrahydro-1,4-benzoxazepine]
